Data published in PMC10187093, “Synthesis, in silico modelling, and in vitro biological evaluation of substituted pyrazole derivatives as potential anti-skin cancer, anti-tyrosinase, and antioxidant agents” (Journal of Enzyme Inhibition and Medicinal Chemistry, 2023).
Read-outs that look alike come from different tables or passages of the source.

Experiments:
[1] = DPPH free radical scavenging assay; conditions: for Percent Scavenging (DPPH): 1 mM
Protocol: An initial screen was done of all 25 derivatives at a concentration of 1 mM. […] Methanol was used as the diluent, and 100 µL of DPPH (200 µM; Sigma-Aldrich, St. Louis, MO) was added to each well. […] The scavenging capacity (SC) was calculated as SC% = ((ΔAcontrol – ΔAsample)/ΔAcontrol) × 100%, where ΔAcontrol was the absorbance of the reagent blank, and ΔAsample was the absorbance of the test samples. The control contained all reagents except the compounds, and all tests were performed in triplicate. Quercetin served as a positive control. The DPPH methanolic solution (1 mL) mixed with DMSO (5 µL) served as a negative control.

A375 = test: MTT antiproliferative/cytotoxicity assay, A375; type: cell-based, human; conditions: melanoma, MTT, 48 h, read-out: IC50 A375
Protocol: (§1) Human-derived GFP-expressing melanoma A375 and epidermoid carcinoma A431 cell lines were purchased from Angio-Proteomie (Boston, MA). Human melanoma carcinoma SK-MEL-28 and human immortalised keratinocytes (HaCaT) cell lines were acquired from American Type Culture Collection (ATCC; Manassas, VA). Human cutaneous SCC cell line SCC-12[192] was generously provided by Dr. James G. Rheinwald to Dr. Tatiana Efimova. Except SK-MEL-28, which was cultured in an RPMI-1640 medium supplemented with 5% FBS, all other human immortalised cell lines were grown and maintained in DMEM containing varying percentages of FBS; 5% FBS for A431, SCC-12, and HaCaT lines, and 10% FBS for A375. All culture media were routinely supplemented with 1% PEST 100X (100 U/mL penicillin, 100 μg/mL streptomycin), and cells were cultured in incubators maintained at 37 °C under an atmosphere of 95% humidity, 20% O2, and 5% CO2. The growth media of incubated cells were changed every 2–3 days until they attained 70–80% confluence, after which they were sub-cultured for experiments and re-passaging. DMSO was used as the vehicle to prepare a 10 mM stock solution of the test compounds.
(§2) Stock solutions (10 mM) were prepared by dissolving each compound to be screened in DMSO. From these stock solutions, escalating concentrations were prepared using the corresponding cell growth media as a diluent, and the cells (65–75% confluent) were treated with (0–40 µM) or without the drug in sext- to octuplicate and incubated for 48 h. All treatment protocols and controls were prepared as previously described.
(§3) The potency and cytotoxicity of the test compounds against two cutaneous melanoma (A375 and SK-MEL-28) and two non-melanoma (A431 and SCC-12) SC cell lines in addition to a control immortalised normal human epidermal keratinocytes (HaCaT) cell line were assessed by MTT assay as previously described.

SK-MEL-28 = test: MTT antiproliferative/cytotoxicity assay, SK-MEL-28; type: cell-based, human; conditions: melanoma, MTT, 48 h, read-out: IC50 SKMEL-28
Protocol: as §1, §2, §3

GFP-A431 = test: MTT antiproliferative/cytotoxicity assay, A431; type: cell-based, human; conditions: for IC50: read-out: IC50 GFP-A431
Protocol: (§4) Human-derived GFP-expressing melanoma A375 and epidermoid carcinoma A431 cell lines were purchased from Angio-Proteomie (Boston, MA). Human melanoma carcinoma SK-MEL-28 and human immortalised keratinocytes (HaCaT) cell lines were acquired from American Type Culture Collection (ATCC; Manassas, VA). […] The growth media of incubated cells were changed every 2–3 days until they attained 70–80% confluence, after which they were sub-cultured for experiments and re-passaging. DMSO was used as the vehicle to prepare a 10 mM stock solution of the test compounds.
(§5) Stock solutions (10 mM) were prepared by dissolving each compound to be screened in DMSO.

HaCaT = test: MTT cytotoxicity assay, noncancerous HaCaT keratinocytes; type: cell-based, human; conditions: control noncancerous keratinocytes, MTT, 48 h, read-out: IC50 HaCaT
Protocol: as §1, §2, §3

SCC-12 = test: MTT antiproliferative/cytotoxicity assay, SCC-12; type: cell-based, human; conditions: for IC50: non-melanoma, MTT, 48 h, read-out: IC50 SCC-12
Protocol: as §4, §5

mushroom tyrosinase = molecular target: T1, mushroom tyrosinase (Agaricus bisporus, UniProt C7FF04); test: In vitro mushroom tyrosinase inhibition assay; type: biochemical; conditions: for inhibition at 500 µM: single-concentration screen, read-out: % Inhibition of tyrosinase; for IC50: > 500 = not biologically relevant, read-out: IC50 Value, mushroom tyrosinase inhibition (Table S1)
T1 construct: purchased Sigma-Aldrich Chemical Company (St. Louis, MO) and MP Biomedicals (Irvine, CA)
T1 sequence (C7FF04 1-392 limits assumed): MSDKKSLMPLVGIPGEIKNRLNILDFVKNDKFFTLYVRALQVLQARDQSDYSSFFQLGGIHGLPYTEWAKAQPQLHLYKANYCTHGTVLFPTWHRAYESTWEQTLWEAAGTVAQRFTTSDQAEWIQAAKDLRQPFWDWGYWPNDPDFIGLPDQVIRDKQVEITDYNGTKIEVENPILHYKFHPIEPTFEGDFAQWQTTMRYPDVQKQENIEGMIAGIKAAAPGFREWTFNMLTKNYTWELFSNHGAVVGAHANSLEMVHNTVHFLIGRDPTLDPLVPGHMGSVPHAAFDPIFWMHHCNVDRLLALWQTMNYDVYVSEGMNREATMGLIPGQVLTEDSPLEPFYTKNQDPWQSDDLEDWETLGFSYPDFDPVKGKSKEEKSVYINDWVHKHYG
Protocol: The anti-tyrosinase potential of all the synthesised derivatives was determined by an enzymatic tyrosinase inhibition assay based on their ability to inhibit the substrate, L-tyrosine, from binding to the tyrosinase enzyme. […] Test samples were dissolved in DMSO at a concentration of 10 mM and then diluted to different concentrations with phosphate buffer (0.1 M, pH 6.8). Each well contained 40 µL of the sample with 80 µL of phosphate buffer solution (0.1 M, pH 6.8), 40 µL of tyrosinase enzyme (100 units/mL), and 40 µL L-tyrosine (2.5 mM). The mixture was incubated for 30 min at room temperature, and absorbance was measured at 490 nm. Each sample was accompanied by a sample blank containing all components except tyrosinase. […] The percentage of tyrosinase inhibition was calculated as follows: ((ΔAcontrol – ΔAsample)/ΔAcontrol) × 100. IC50 values denoted the sample concentration required to inhibit 50% tyrosinase activity (Table S1).

[2] = read-out: IC50 DPPH radical scavenging
[3] = Homo sapiens, A-431, 48 h, non-melanoma, MTT, 48 h
[4] = N.A. = No Activity, > 1000 = not biologically relevant, read-out: IC50 Value, DPPH antioxidant activity (Table S4)
[5] = IC50 HaCaT divided by IC50 A431
[6] = IC50 HaCaT divided by IC50 SCC-12

Compound | IC50 (A375; Homo sapiens, A-375, 48 h) | IC50 (HaCaT; Homo sapiens, HaCaT) | inhibition at 500 µM (mushroom tyrosinase) | IC50 (mushroom tyrosinase) | IC50 (SK-MEL-28; Homo sapiens, SK-MEL-28, 48 h) | IC50 (GFP-A431; [3]) | IC50 (SCC-12; Homo sapiens, SCC12, 48 h) | Percent Scavenging (DPPH) [1] | other results
Cc1cc(C(C)(C)C)c(O)c(C(C)(C)C)c1 [BHT, butylated hydroxytoluene, reference compound] |  |  |  |  |  |  |  |  | IC50 [1, 2]: 285 ± 7 µM
Cc1ccc(-c2cc(C(F)(F)F)nn2-c2ccc(S(N)(=O)=O)cc2)cc1 [Celecoxib, celecoxib, reference compound] | 27 µM | 49.8 ± 8.2 µM |  |  |  |  |  |  | IC50 (A375): 26.8 ± 2.7 µM; IC50 (SK-MEL-28; Homo sapiens, SK-MEL-28): 11.4 ± 2.4 µM; IC50 (GFP-A431; Homo sapiens, A-431, 48 h): 7.4 µM
N.N.[Cl][Pt][Cl] [Cisplatin, cisplatin, reference compound] |  |  |  |  |  |  |  |  | IC50 (A375): 1.49 ± 0.44 µM; IC50 (SK-MEL-28): 14.2 ± 0.24 µM; IC50 (GFP-A431; non-melanoma, MTT, 48 h): 7.7 ± 0.3 µM; IC50 (SCC-12): 4.4 ± 0.2 µM; IC50 (HaCaT): 3.4 ± 0.4 µM
CCc1c(C)n[nH]c1C [P1, 4-Ethyl-3,5-dimethyl-1H-pyrazole] | 47.7 ± 4.2 µM | 60.5 ± 3.9 µM | 6.77% | > 500 µM | 42.8 ± 0.3 µM | 41.6 ± 0.8 µM | 257 ± 18.4 µM | 5.85% | IC50 [1, 4]: > 1000 µM
Cc1n[nH]c2c1CCC2 [P2, 3-Methyl-1,4,5,6-tetrahydrocyclopenta[c]pyrazole] | 54.3 ± 1.6 µM | 44.2 ± 1.1 µM | 20.8% | > 500 µM | 42.6 ± 1.5 µM | 43.9 ± 2.1 µM | 246 ± 37.3 µM | -5.84% | 
Cc1cc(-c2ccccc2)n[nH]1 [P3, 5-Methyl-3-phenyl-1H-pyrazole] | 54.8 ± 2.7 µM | 42.1 ± 3.4 µM | 42.6% | > 500 µM | 59.1 ± 4.6 µM | 27.2 ± 0.9 µM | 546 ± 20.7 µM | -0.39% | selectivity index (SI) A431 (GFP-A431): 27.2 ± 0.9 (1.6); selectivity index (SI) SCC-12 (SCC-12): 546.5 ± 20.7 (0.1)
Cc1[nH]nc(-c2ccccc2)c1Cl [P4, 4-Chloro-5-methyl-3-phenyl-1H-pyrazole] | 58.4 ± 4.5 µM | 76.1 µM | 68.7 ± 0.4% | 197 µM | 62.3 ± 2.7 µM | 70.8 ± 6.2 µM | 216 ± 13.4 µM | -0.84% | 
Cc1[nH]nc2c1CCc1ccccc1-2 [P5, 3-Methyl-4,5-dihydro-2H-benzo[g]indazole] | 65.3 ± 4.2 µM | 265 ± 4.3 µM | 40% | > 500 µM | 131 ± 2.4 µM | 42.1 ± 3.1 µM | 77.6 ± 1.7 µM | -10.48% | selectivity index (SI) A431 (GFP-A431; [5]): 6.3; selectivity index (SI) SCC-12 (SCC-12; [6]): 3.4; DPPH antioxidant activity (in words) [1]: inactivity
Cc1[nH]nc2c1ccc1ccccc12 [P6, 3-Methyl-2H-benzo[g]indazole] | 114 ± 3.3 µM | 147.2 ± 0.8 µM | 81.7 ± 0.7% | > 500 µM | 47.4 ± 1.2 µM | 69.8 ± 7.5 µM | 49.9 ± 3.4 µM | 65.17% | selectivity index (SI) A431 (GFP-A431; [5]): 2.1; selectivity index (SI) SCC-12 (SCC-12; [6]): 3.0; IC50 [1, 4]: 30.6 µM; IC50 [1, 2]: 30.6 ± 2.1 µM
